Data taken from publication PMC10023787, “Trio-pharmacophore DNA-encoded chemical library for simultaneous selection of fragments and linkers” (Nature Communications, 2023).
“Also recorded” adds a separate entry of the source. Like-named read-outs stand apart in the source and are kept apart here. Each block holds one compound with its values, some of them ahead of it.

Target: T1, MMP-9 (Homo sapiens, UniProt P14780)
T1 construct: purchased Sino Biological 10327-HNAH
Experiment: MMP-9 inhibition assay (fluorogenic peptide substrate)
Type: biochemical
Details: for remaining activity at 0.078016 µM: fragment concentration 0.078016 µM; for remaining activity at 0.39008 µM: fragment concentration 0.39008 µM; for remaining activity at 1.9504 µM: fragment concentration 1.9504 µM; for remaining activity at 9.752 µM: fragment concentration 9.752 µM; for inhibitory effect: in words
Procedure, shortened: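 Human proMMP-2 and proMMP-9 were activated with 1 mM APMA for 2 h at 37 °C, then used at 6.5 nM (MMP-2) or 10 nM (MMP-9) final in Tris/NaCl/CaCl2/Brij 35 buffer, pH 7.5. After 30 min preincubation with compound at RT, 25 μM FRET peptide substrate was added and fluorescence (ex 280/em 360 nm) followed for 30 min. IC50 came from logistic fits of Vmax.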

[1] = Figure 5b, read-out: Normalized activity (Mean)
[2] = Figure 5b, fragment concentration 48.76 µM, read-out: Normalized activity (Mean)
[3] = Figure 5b, fragment concentration 243.8 µM, read-out: Normalized activity (Mean)
[4] = Figure 5b, fragment concentration 1219 µM, read-out: Normalized activity (Mean)
[5] = MMP-9, concentration 0.08 µM, read-out: Mean (dose-response, Supplementary fig 17)
[6] = MMP-9, concentration 0.39 µM, read-out: Mean (dose-response, Supplementary fig 17)
[7] = MMP-9, concentration 1.95 µM, read-out: Mean (dose-response, Supplementary fig 17)
[8] = MMP-9, concentration 9.75 µM, read-out: Mean (dose-response, Supplementary fig 17)
[9] = MMP-9, concentration 48.76 µM, read-out: Mean (dose-response, Supplementary fig 17)
[10] = MMP-9, concentration 243.80 µM, read-out: Mean (dose-response, Supplementary fig 17)
[11] = MMP-9, concentration 1219.00 µM, read-out: Mean (dose-response, Supplementary fig 17)
[12] = MMP-9, concentration 1.95 µM, read-out: Mean (MMP-9, Supplementary fig 16)
[13] = MMP-9, concentration 1.95 µM, read-out: Mean (MMP-9 dose-response, Supplementary fig 15)

T1 sequence (P14780 107-707 limits assumed): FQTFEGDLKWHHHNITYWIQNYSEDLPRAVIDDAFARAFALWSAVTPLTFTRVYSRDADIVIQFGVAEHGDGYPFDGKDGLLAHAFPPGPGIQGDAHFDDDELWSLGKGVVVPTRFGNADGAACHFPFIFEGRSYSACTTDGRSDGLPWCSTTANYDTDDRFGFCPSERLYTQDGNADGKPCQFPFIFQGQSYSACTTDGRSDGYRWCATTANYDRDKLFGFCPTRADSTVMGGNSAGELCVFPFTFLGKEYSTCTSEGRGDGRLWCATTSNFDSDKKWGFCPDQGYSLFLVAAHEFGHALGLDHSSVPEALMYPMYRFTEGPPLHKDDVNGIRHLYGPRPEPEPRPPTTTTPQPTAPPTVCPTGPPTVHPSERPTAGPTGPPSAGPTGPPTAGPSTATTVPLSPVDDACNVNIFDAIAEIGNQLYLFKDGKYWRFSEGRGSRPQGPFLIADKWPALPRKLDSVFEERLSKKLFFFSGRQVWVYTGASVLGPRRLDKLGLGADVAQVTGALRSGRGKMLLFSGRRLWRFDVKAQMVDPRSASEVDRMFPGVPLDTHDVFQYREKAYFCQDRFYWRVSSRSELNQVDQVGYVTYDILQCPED

remaining activity at 0.078016 µM [1]: 96.6%
remaining activity at 0.39008 µM [1]: 92.7%
remaining activity at 1.9504 µM [1]: 92.2%
remaining activity at 9.752 µM [1]: 92.5%
remaining activity at 48.76 µM [2]: 86.3%
remaining activity at 243.8 µM [3]: 85%
remaining activity at 1219 µM [4]: 74.6%
remaining activity at 0.08 µM [5]: 96.6%
remaining activity at 0.39 µM [6]: 92.7%
remaining activity at 1.95 µM [7]: 92.2%
remaining activity at 9.75 µM [8]: 92.5%
remaining activity at 48.76 µM [9]: 86.3%
remaining activity at 243.8 µM [10]: 85%
remaining activity at 1219 µM [11]: 74.6%
SMILES: O=C(O)CNC(=O)NC12CC3CC(CC(C3)C1)C2 [Compound 66]
inhibitory effect: No inhibitory effects could be measured; also recorded: did not exhibit meaningful activity

remaining activity at 0.078016 µM [1]: 99.6%
remaining activity at 0.39008 µM [1]: 103%
remaining activity at 1.9504 µM [1]: 88%
remaining activity at 9.752 µM [1]: 89.2%
remaining activity at 48.76 µM [2]: 88.6%
remaining activity at 243.8 µM [3]: 78.5%
remaining activity at 1219 µM [4]: 32.5%
remaining activity at 0.08 µM (MMP-9, concentration 0.08 µM, read-out: Mean (MMP-9, Supplementary fig 16)): 99.6%
remaining activity at 0.39 µM (MMP-9, concentration 0.39 µM, read-out: Mean (MMP-9, Supplementary fig 16)): 103%
remaining activity at 1.95 µM [12]: 88%
remaining activity at 9.75 µM (MMP-9, concentration 9.75 µM, read-out: Mean (MMP-9, Supplementary fig 16)): 89.2%
remaining activity at 48.76 µM (MMP-9, concentration 48.76 µM, read-out: Mean (MMP-9, Supplementary fig 16)): 88.6%
remaining activity at 243.8 µM (MMP-9, concentration 243.80 µM, read-out: Mean (MMP-9, Supplementary fig 16)): 78.5%
remaining activity at 1219 µM (MMP-9, concentration 1219.00 µM, read-out: Mean (MMP-9, Supplementary fig 16)): 32.5%
remaining activity at 0.08 µM (MMP-9, concentration 0.08 µM, read-out: Mean (MMP-9 dose-response, Supplementary fig 15)): 99.6%
remaining activity at 0.08 µM [5]: 99.6%
remaining activity at 0.39 µM (MMP-9, concentration 0.39 µM, read-out: Mean (MMP-9 dose-response, Supplementary fig 15)): 103%
remaining activity at 0.39 µM [6]: 103%
remaining activity at 1.95 µM [13]: 88%
remaining activity at 1.95 µM [7]: 88%
remaining activity at 9.75 µM (MMP-9, concentration 9.75 µM, read-out: Mean (MMP-9 dose-response, Supplementary fig 15)): 89.2%
remaining activity at 9.75 µM [8]: 89.2%
remaining activity at 48.76 µM (MMP-9, concentration 48.76 µM, read-out: Mean (MMP-9 dose-response, Supplementary fig 15)): 88.6%
remaining activity at 48.76 µM [9]: 88.6%
remaining activity at 243.8 µM (MMP-9, concentration 243.80 µM, read-out: Mean (MMP-9 dose-response, Supplementary fig 15)): 78.5%
remaining activity at 243.8 µM [10]: 78.5%
remaining activity at 1219 µM (MMP-9, concentration 1219.00 µM, read-out: Mean (MMP-9 dose-response, Supplementary fig 15)): 32.5%
remaining activity at 1219 µM [11]: 32.5%
inhibitory effect: high µM
IC50 (mean ± SE, n.d: not detected, Fig. 5e prints no unit, µM, read-out: IC50): 784 ± 115 µM
SMILES: NCc1c[nH]nn1 [Compound 787]

remaining activity at 0.12207 µM (Figure 5b, fragment concentration 0.12207 µM, read-out: Normalized activity (Mean)): 95.1%
remaining activity at 0.488281 µM (Figure 5b, fragment concentration 0.488281 µM, read-out: Normalized activity (Mean)): 93.3%
remaining activity at 1.95312 µM (Figure 5b, fragment concentration 1.95312 µM, read-out: Normalized activity (Mean)): 97.2%
remaining activity at 7.8125 µM (Figure 5b, fragment concentration 7.8125 µM, read-out: Normalized activity (Mean)): 99.6%
remaining activity at 31.25 µM (Figure 5b, fragment concentration 31.25 µM, read-out: Normalized activity (Mean)): 92%
remaining activity at 125 µM (Figure 5b, fragment concentration 125 µM, read-out: Normalized activity (Mean)): 94.2%
remaining activity at 500 µM (Figure 5b, fragment concentration 500 µM, read-out: Normalized activity (Mean)): 83%
remaining activity at 0.12 µM (MMP-9, concentration 0.12 µM, read-out: Mean (MMP-9, Supplementary fig 16)): 95.1%
remaining activity at 0.49 µM (MMP-9, concentration 0.49 µM, read-out: Mean (MMP-9, Supplementary fig 16)): 93.3%
remaining activity at 1.95 µM [12]: 97.2%
remaining activity at 7.81 µM (MMP-9, concentration 7.81 µM, read-out: Mean (MMP-9, Supplementary fig 16)): 99.6%
remaining activity at 31.25 µM (MMP-9, concentration 31.25 µM, read-out: Mean (MMP-9, Supplementary fig 16)): 92%
remaining activity at 125 µM (MMP-9, concentration 125.00 µM, read-out: Mean (MMP-9, Supplementary fig 16)): 94.2%
remaining activity at 500 µM (MMP-9, concentration 500.00 µM, read-out: Mean (MMP-9, Supplementary fig 16)): 83%
remaining activity at 0.12 µM (MMP-9, concentration 0.12 µM, read-out: Mean (MMP-9 dose-response, Supplementary fig 15)): 95.1%
remaining activity at 0.12 µM (MMP-9, concentration 0.12 µM, read-out: Mean (dose-response, Supplementary fig 17)): 82.6%
remaining activity at 0.49 µM (MMP-9, concentration 0.49 µM, read-out: Mean (MMP-9 dose-response, Supplementary fig 15)): 93.3%
remaining activity at 0.49 µM (MMP-9, concentration 0.49 µM, read-out: Mean (dose-response, Supplementary fig 17)): 80.6%
remaining activity at 1.95 µM [13]: 97.2%
remaining activity at 1.95 µM [7]: 99.3%
remaining activity at 7.81 µM (MMP-9, concentration 7.81 µM, read-out: Mean (MMP-9 dose-response, Supplementary fig 15)): 99.6%
remaining activity at 7.81 µM (MMP-9, concentration 7.81 µM, read-out: Mean (dose-response, Supplementary fig 17)): 88.5%
remaining activity at 31.25 µM (MMP-9, concentration 31.25 µM, read-out: Mean (MMP-9 dose-response, Supplementary fig 15)): 92%
remaining activity at 31.25 µM (MMP-9, concentration 31.25 µM, read-out: Mean (dose-response, Supplementary fig 17)): 96.1%
remaining activity at 125 µM (MMP-9, concentration 125.00 µM, read-out: Mean (MMP-9 dose-response, Supplementary fig 15)): 94.2%
remaining activity at 125 µM (MMP-9, concentration 125.00 µM, read-out: Mean (dose-response, Supplementary fig 17)): 87.7%
remaining activity at 500 µM (MMP-9, concentration 500.00 µM, read-out: Mean (MMP-9 dose-response, Supplementary fig 15)): 83%
remaining activity at 500 µM (MMP-9, concentration 500.00 µM, read-out: Mean (dose-response, Supplementary fig 17)): 84%
SMILES: Cn1c(O)nc2cc(C(=O)O)cnc21 [Compound 826]
inhibitory effect: No inhibitory effects could be measured; also recorded: did not exhibit meaningful activity
